Laboratory results taken from ChEMBL document CHEMBL4196011, “The lead optimization of the polyamine conjugate of flavonoid with a naphthalene motif: Synthesis and biological evaluation” (Eur J Med Chem, 2018).
Calls of active or inactive are those of the source. No cut-off for these calls is given here.

What was measured:
[1] = Cytotoxicity against human QSG7701 cells up to 15 uM after 48 hrs by MTT assay; type: cell-based
HepG2 [2] = test: Induction of apoptosis in human HepG2 cells assessed as viable cells at 2.5 uM after 36 hrs by Annexin V-FITC/propidium iodide staining-based flow cytometry (reference value: 96.6%); type: functional; settings: HepG2, 36 h, read-out: Activity
HepG2 [3] = test: Induction of apoptosis in human HepG2 cells assessed as late apoptotic cells at 7.5 uM after 48 hrs by Annexin V-FITC/propidium iodide staining-based flow cytometry (reference value: 0.95%); type: functional
HepG2 [4] = test: Induction of apoptosis in human HepG2 cells assessed as early apoptotic cells at 2.5 uM after 48 hrs by Annexin V-FITC/propidium iodide staining-based flow cytometry (reference value: 1.30%); type: functional
HepG2 [5] = test: Induction of apoptosis in human HepG2 cells assessed as early apoptotic cells at 7.5 uM after 48 hrs by Annexin V-FITC/propidium iodide staining-based flow cytometry (reference value: 1.30%); type: functional
HepG2 [6] = test: Induction of apoptosis in human HepG2 cells assessed as late apoptotic cells at 5 uM after 8 hrs by Annexin V-FITC/propidium iodide staining-based flow cytometry (reference value: 0.88%); type: functional
HepG2 [7] = test: Induction of apoptosis in human HepG2 cells assessed as necrotic cells at 2.5 uM after 36 hrs by Annexin V-FITC/propidium iodide staining-based flow cytometry (reference value: 0.24%); type: functional
HepG2 [8] = test: Induction of apoptosis in human HepG2 cells assessed as viable cells at 7.5 uM after 48 hrs by Annexin V-FITC/propidium iodide staining-based flow cytometry (reference value: 96.67%); type: functional; settings: HepG2, 48 h, read-out: Activity
HepG2 [9] = test: Induction of autophagy in human HepG2 cells assessed as upregulation of beclin1 expression at 5 uM in presence of autophagy inhibitor 3-MA by Western blot analysis; type: functional, cell-based
HepG2 [10] = test: Induction of apoptosis in human HepG2 cells assessed as increase in Bid expression levels after 48 hrs by immunofluorescence staining-based high content screening assay; type: functional, cell-based
HT-29 = test: Antiproliferative activity against human HT-29 cells after 48 hrs by MTT assay; type: functional, cell-based; settings: HT-29, 48 h
[11] = Drug localization in endoplasmic reticulum of human HepG2 cells at 7.5 uM after 8 hrs by ER-Tracker Red dye-based confocal fluorescence microscopic analysis; type: ADME, subcellular; settings: hepg2, 8 h
Mus musculus = test: Toxicity in Kunming mouse xenografted with […] H22 cells assessed as effect on liver weight index at 30 mg/kg, iv administered for 7 consecutive days; type: organism-based; settings: in vivo
HepG2 [12] = test: Induction of apoptosis in human HepG2 cells assessed as necrotic cells at 7.5 uM after 8 hrs by Annexin V-FITC/propidium iodide staining-based flow cytometry (reference value: 0.40%); type: functional
HepG2 [13] = test: Induction of apoptosis in human HepG2 cells at 5 uM preincubated cells with autophagy inhibitor 3-MA for 2 hrs followed by compound addition measured after 48 hrs by Annexin V-FITC/propidium iodide staining-based flow cytometry relative to control; type: functional; set-up: scale not given: the % may be the effect or the level left
HepG2 [14] = test: Induction of apoptosis in human HepG2 cells assessed as early apoptotic cells at 2.5 uM after 24 hrs by Annexin V-FITC/propidium iodide staining-based flow cytometry (reference value: 2.07%); type: functional
HepG2 [15] = test: Induction of apoptosis in human HepG2 cells assessed as late apoptotic cells at 5 uM after 24 hrs by Annexin V-FITC/propidium iodide staining-based flow cytometry (reference value: 0.88%); type: functional
HepG2 [16] = test: Induction of apoptosis in human HepG2 cells assessed as late apoptotic cells at 7.5 uM after 24 hrs by Annexin V-FITC/propidium iodide staining-based flow cytometry (reference value: 0.88%); type: functional
[17] = Drug uptake in human HepG2 cells assessed as PAT-mediated compound uptake at 10 uM after 8 hrs in presence of spermidine by HCS analysis; type: ADME, cell-based; settings: hepg2, 8 h
HepG2 [18] = test: Induction of apoptosis in human HepG2 cells assessed as early apoptotic cells at 7.5 uM after 8 hrs by Annexin V-FITC/propidium iodide staining-based flow cytometry (reference value: 1.29%); type: functional
HepG2 [19] = test: Induction of apoptosis in human HepG2 cells assessed as early apoptotic cells at 7.5 uM after 36 hrs by Annexin V-FITC/propidium iodide staining-based flow cytometry (reference value: 2.08%); type: functional
HepG2 [20] = test: Cytotoxicity in human HepG2 cells assessed as gain in lysosomal mass/pH after 48 hrs by LysoTracker Red dye-based fluorescence assay; type: functional, cell-based
K562 = test: Antiproliferative activity against human K562 cells after 48 hrs by MTT assay; type: functional, cell-based; settings: K562, 48 h
HepG2 [21] = test: Induction of apoptosis in human HepG2 cells assessed as necrotic cells at 2.5 uM after 24 hrs by Annexin V-FITC/propidium iodide staining-based flow cytometry (reference value: 0.12%); type: functional
HepG2 [22] = test: Induction of autophagy in human HepG2 cells assessed as increase in LC3-2 expression at 5 uM by Western blot analysis; type: functional, cell-based
HepG2 [23] = test: Induction of apoptosis in human HepG2 cells assessed as necrotic cells at 5 uM after 48 hrs by Annexin V-FITC/propidium iodide staining-based flow cytometry (reference value: 0.08%); type: functional
HepG2 [24] = test: Antiproliferative activity against human HepG2 cells after 48 hrs by MTT assay; type: functional, cell-based; settings: HepG2, 48 h
HepG2 [25] = test: Induction of apoptosis in human HepG2 cells assessed as late apoptotic cells at 2.5 uM after 48 hrs by Annexin V-FITC/propidium iodide staining-based flow cytometry (reference value: 0.95%); type: functional
HepG2 [26] = test: Induction of apoptosis in human HepG2 cells assessed as necrotic cells at 7.5 uM after 24 hrs by Annexin V-FITC/propidium iodide staining-based flow cytometry (reference value: 0.12%); type: functional
HepG2 [27] = test: Induction of apoptosis in human HepG2 cells assessed as decrease in Bcl2 protein expression after 48 hrs by immunofluorescence staining-based high content screening assay; type: functional, cell-based
HepG2 [28] = test: Induction of apoptosis in human HepG2 cells assessed as early apoptotic cells at 2.5 uM after 8 hrs by Annexin V-FITC/propidium iodide staining-based flow cytometry (reference value: 1.29%); type: functional
HepG2 [29] = test: Induction of apoptosis in human HepG2 cells assessed as upregulation of active caspase 8 level after 48 hrs by immunofluorescence staining-based high content screening assay; type: functional, cell-based
HepG2 [30] = test: Induction of apoptosis in human HepG2 cells assessed as early apoptotic cells at 2.5 uM after 36 hrs by Annexin V-FITC/propidium iodide staining-based flow cytometry (reference value: 2.08%); type: functional
HeLa = test: Antiproliferative activity against human HeLa cells after 48 hrs by MTT assay; type: functional, cell-based
HepG2 [31] = test: Induction of apoptosis in human HepG2 cells assessed as viable cells at 2.5 uM after 8 hrs by Annexin V-FITC/propidium iodide staining-based flow cytometry (reference value: 97.43%); type: functional; settings: HepG2, 8 h, read-out: Activity
HepG2 [32] = test: Induction of autophagy in human HepG2 cells assessed as increase in LC3-2 expression at 5 uM in presence of autophagy inhibitor 3-MA by Western blot analysis; type: functional, cell-based
[33] = Toxicity in iv dosed Kunming mouse assessed as maximum tolerated dose administered for 7 consecutive days; type: organism-based; settings: in vivo

COc1ccc2cc(-c3oc4c(CNCCCCN)cccc4c(=O)c3OC)ccc2c1Br.Cl.Cl
Activity [1]: Non-Toxic | viability at 2.5 µM (HepG2 [2]): 84% | Activity (HepG2 [3]): 31.22% | Activity (HepG2 [4]): 21.8% | Activity (HepG2 [5]): 23.02% | Activity (HepG2 [6]): 1.91% | Activity (HepG2 [7]): 3.9% | viability at 7.5 µM (HepG2 [8]): 45.6% | Activity (HepG2 [9]): inactive | Activity (HepG2 [10]): Dose-dependent effect | IC50 (HT-29): 14.7 µM | Drug uptake [11]: Active | Activity (Mus musculus): Non-Toxic | Activity (HepG2 [12]): 0.05% | Activity (HepG2 [13]): 53.07% | Activity (HepG2 [14]): 10.46% | Activity (HepG2 [15]): 2.03% | Activity (HepG2 [16]): 9.48% | Drug uptake [17]: Not Active | Activity (HepG2 [18]): 18.1% | Activity (HepG2 [19]): 28.78% | Activity (HepG2 [20]): Dose-dependent effect | IC50 (K562): 13.4 µM | Activity (HepG2 [21]): 0% | Activity (HepG2 [22]): Active | Activity (HepG2 [23]): 3.39% | IC50 (HepG2 [24]): 7.1 µM | Activity (HepG2 [25]): 3.85% | Activity (HepG2 [26]): 4.51% | Activity (HepG2 [27]): Active | Activity (HepG2 [28]): 2.06% | Activity (HepG2 [29]): Dose-dependent effect | Activity (HepG2 [30]): 6.24% | IC50 (HeLa): 5.9 µM | viability at 2.5 µM (HepG2 [31]): 96.1% | Activity (HepG2 [32]): inactive | MTD at 7 days [33]: 50 mg/kg
